According to patent publication US6855348B2, “Insecticidal composition derived from plants” (priority 2000, dated 2005):
Where “and” joins values, the source holds several entries; their conditions need not be identical. Identical values can stand only once. Like-named read-outs stand apart in the source and are kept apart here.

What was measured:
[1] = tested on: Dermatophagoides farinae
Procedure: (§1) American house dust mite (Dermatophagoides farinae) and European house dust mite (Dermatophagoide pteronyssinus) were maintained at 75±5% RH (relative humidity) at 25±1° C., and were provided a feed mixture of fish meal and multi-vitamins in a ratio of 1 to 1 on a 12.5×10.5×5 cm container.
(§2) The starting concentration is important for the primary screening of bioactive compounds from plant extracts and oils. […] 1 mg of the methanol extracts or oils were suspended with 40 μl of methanol and were transferred to a colorless microtube (2 ml). The microtube was vertically shaken several times to disperse the contents to the wall and cap of the microtube and it was placed in a freeze dryer for 1 hour in order to volatilize the solvent. Twenty-five mites were placed on the prepared microtube, and all treatment groups were transferred to an incubator kept at […]. Active mites only were selected with a fine brush under a microscope. Mortalities were determined with a microscope at 24 hours and 48 hours after treatment. […] All tests were replicated four or more times. The percentage mortality was determined and transformed to arcsine square-root values for analysis of variance (ANOVA). Treatment means were compared and separated by Scheffe's test at the P=0.05 (SAS Institute, 1996). Means (±standard error) of untransformed data are reported. Controls received 40 μl of methanol.

[2] = tested on: Dermatophagoides pteronyssinus
Procedure: as §1, §2

[3] = tested on: Lasioderma serricorne; experiment: Insecticidal activity test, treated filter paper in petri dish; type: in vivo; details: adults, 24 hours
Procedure: (§3) Stored-product pests used in the present invention were adult Lasioderma serricome Fab., adult Sitophilus oryzae L. and adult Callosobruchus chinensis L., and it was selected insects were not exposed to any insecticide. L. serricorne was bred in a beaker(10 cm diameter, 15 cm height) with wheat bran, S. oryzae was bred in a platic container(20×20×15 cm) with peanuts, and was bred in a plastic container(26×30×20 cm) with red beans. All insects were maintained at 28±1° C., 55±5% RH(relative humidity) and 16:8 hr(day:night) light condition.
(§4) Right after treatment, paper was transferred to hood and put in hood for about 2 minutes to completely evaporate solvent, and then, the above paper was put on paper treated with 20 adult pests in petri dish and this dish was covered with a lid. 24 hours after insecticide activity was investigated. To faacilitate handling of adult pests by their reducing activity, L. sericorne was put at −4° C. for 2 minutes, S. oryzae was used without this treatment, and C. chinensis was selected by using sucking tube. Healthy pests used in test were selected right before 6 hours of test. They were maintained at 28±1° C., 50-60% RH and 16:8 hr(day:night) light condition.
(§5) Insecticidal activity of salicylaldehyde against stored-product pests was investigated by the insecticidal test of Test 6. Test was repeated 25 times for adult S. oryzae, and 10 times for adult L. serricorne and adult C. chinensis. 10 adult pests were used for each test.

[4] = tested on: Sitophilus oryzae; experiment: as above; type: in vivo, Sitophilus oryzae L.; details: adults, 24 hours
Procedure: as §3, §4, §5

[5] = tested on: Callosobruchus chinensis; experiment: as above; type: in vivo, Callosobruchus chinensis L.; details: adults, 24 hours
Procedure: as §3, §4, §5

[6] = tested on: stored-product pests; experiment: Insecticidal activity test, statements not resolved by pest species; type: in vivo; details: concentration of 1.25 mg
Procedure: as §3, §4

[7] = tested on: house dust mites; type: in vivo
Procedure: All tests were replicated four or more times. […] Means (±standard error) of untransformed data are reported. Controls received 40 μl of methanol.

[8] = 0.5 mg/tube, 48 hr, listed as Allyl isothiocyanate

Q: What does the source list for `O=Cc1ccccc1O` [salicylaldehyde]?
A: Mortality (Means ± standard error, %) ([1]; 0.125 mg/tube, 24 hr): 20.0 ± 1.6c %; Mortality (Means ± standard error, %) ([1]; 0.125 mg/tube, 48 hr): 27.0 ± 3.8c %; Mortality (Means ± standard error, %) ([1]; 0.2 mg/tube, 24 hr): 22.0 ± 1.2c %; Mortality (Means ± standard error, %) ([1]; 0.2 mg/tube, 48 hr): 28.0 ± 1.6c %; Mortality (Means ± standard error, %) ([1]; 0.25 mg/tube, 24 hr): 26.0 ± 2.0c %; Mortality (Means ± standard error, %) ([1]; 0.25 mg/tube, 48 hr): 34.02.6bc %; Mortality (Means ± standard error, %) ([1]; 0.3 mg/tube, 24 hr): 27.0 ± 1.9c %; Mortality (Means ± standard error, %) ([1]; 0.3 mg/tube, 48 hr): 37.0 ± 1.9bc %; Mortality (Means ± standard error, %) ([1]; 0.4 mg/tube, 24 hr): 44.0 ± 2.8b %; Mortality (Means ± standard error, %) ([1]; 0.4 mg/tube, 48 hr): 48.0 ± 2.8b %; Mortality (Means ± standard error, %) ([1]; 0.5 mg/tube, 24 hr): 99.0%; Mortality (Means ± standard error, %) ([1]; 0.5 mg/tube, 48 hr): 100a %; Mortality (Means ± standard error, %) ([1]; 1 mg/tube, 24 hr): 100a %; Mortality (Means ± standard error, %) ([1]; 1 mg/tube, 48 hr): 100a %; Mortality (Means ± standard error, %) ([2]; 0.125 mg/tube, 24 hr): 0e %; Mortality (Means ± standard error, %) ([2]; 0.125 mg/tube, 48 hr): 0e %; Mortality (Means ± standard error, %) ([2]; 0.2 mg/tube, 24 hr): 6.0 ± 1.1d %; Mortality (Means ± standard error, %) ([2]; 0.2 mg/tube, 48 hr): 9.0 ± 1.0d %; Mortality (Means ± standard error, %) ([2]; 0.25 mg/tube, 24 hr): 7.0 ± 3.0d %; Mortality (Means ± standard error, %) ([2]; 0.25 mg/tube, 48 hr): 8.0 ± 2.8d %; Mortality (Means ± standard error, %) ([2]; 0.3 mg/tube, 24 hr): 22.0 ± 2.6c %; Mortality (Means ± standard error, %) ([2]; 0.3 mg/tube, 48 hr): 27.0 ± 2.5c %; Mortality (Means ± standard error, %) ([2]; 0.4 mg/tube, 24 hr): 44.0 ± 2.8b %; Mortality (Means ± standard error, %) ([2]; 0.4 mg/tube, 48 hr): 46.0 ± 2.6b %; Mortality (Means ± standard error, %) ([2]; 0.5 mg/tube, 24 hr): 89.0%; Mortality (Means ± standard error, %) ([2]; 0.5 mg/tube, 48 hr): 92.0 ± 1.6a %; Mortality (Means ± standard error, %) ([2]; 1 mg/tube, 24 hr): 100a %; Mortality (Means ± standard error, %) ([2]; 1 mg/tube, 48 hr): 100a %; Mortality (Means ± standard error, %) ([3]; 0.3125 mg/paper): 87% and 86.7 ± 3.3 b %; Mortality (Means ± standard error, %) ([3]; 0.625 mg/paper): 100%; Mortality (Means ± standard error, %) ([3]; 1.25 mg/paper): 100 a %; Mortality (Means ± standard error, %) ([3]; 2.5 mg/paper): 100 a %; Mortality (Means ± standard error, %) ([3]; 5 mg/paper): 100 a %; Mortality (Means ± standard error, %) ([4]; 0.3125 mg/paper): 7.0 ± 2.1 b %; Mortality (Means ± standard error, %) ([4]; 0.625 mg/paper): 97%; Mortality (Means ± standard error, %) ([4]; 1.25 mg/paper): 100 a %; Mortality (Means ± standard error, %) ([4]; 2.5 mg/paper): 100 a %; Mortality (Means ± standard error, %) ([4]; 5 mg/paper): 100 a %; Mortality (Means ± standard error, %) ([5]; 0.15625 mg/paper): 68.0 ± 3.9 b %; Mortality (Means ± standard error, %) ([5]; 0.3125 mg/paper): 97%; Mortality (Means ± standard error, %) ([5]; 0.625 mg/paper): 100%; Mortality (Means ± standard error, %) ([5]; 1.25 mg/paper): 100 a %; Mortality (Means ± standard error, %) ([5]; 2.5 mg/paper): 100 a %; Mortality (Means ± standard error, %) ([5]; 5 mg/paper): 100 a %; insecticidal activity against three species [6]: 100%

Q: What does the source list for `C=CCN=C=S` [allyl isothiocyanate]?
A: Mortality (Means ± standard error, %) ([1]; 0.125 mg/tube, 24 hr): 1.0 ± 1.0 e %; Mortality (Means ± standard error, %) ([1]; 0.125 mg/tube, 48 hr): 0 e %; Mortality (Means ± standard error, %) ([1]; 0.2 mg/tube, 24 hr): 6.0 ± 1.2 d %; Mortality (Means ± standard error, %) ([1]; 0.2 mg/tube, 48 hr): 9.0%; Mortality (Means ± standard error, %) ([1]; 0.25 mg/tube, 24 hr): 7.0 ± 3.0 d %; Mortality (Means ± standard error, %) ([1]; 0.25 mg/tube, 48 hr): 8.0%; Mortality (Means ± standard error, %) ([1]; 0.3 mg/tube, 24 hr): 22.0 ± 2.6 c %; Mortality (Means ± standard error, %) ([1]; 0.3 mg/tube, 48 hr): 27.0%; Mortality (Means ± standard error, %) ([1]; 0.4 mg/tube, 24 hr): 44.0 ± 2.8 b %; Mortality (Means ± standard error, %) ([1]; 0.4 mg/tube, 48 hr): 46.0%; Mortality (Means ± standard error, %) ([1]; 0.5 mg/tube, 24 hr): 90.0 ± 2.6 a %; Mortality (Means ± standard error, %) ([1]; 0.5 mg/tube, 48 hr): 97.0%; Mortality (Means ± standard error, %) [1, 8]: 94%; Mortality (Means ± standard error, %) ([1]; 1 mg/tube, 24 hr): 100 a %; Mortality (Means ± standard error, %) ([1]; 1 mg/tube, 48 hr): 100 a %; Mortality (Means ± standard error, %) ([2]; 0.125 mg/tube, 24 hr): 6.0 ± 3.5 d %; Mortality (Means ± standard error, %) ([2]; 0.125 mg/tube, 48 hr): 9.0 ± 2.5 c %; Mortality (Means ± standard error, %) ([2]; 0.2 mg/tube, 24 hr): 7.0 ± 1.0 cd %; Mortality (Means ± standard error, %) ([2]; 0.2 mg/tube, 48 hr): 9.0 ± 1.0 c %; Mortality (Means ± standard error, %) ([2]; 0.25 mg/tube, 24 hr): 9.0 ± 1.9 cd %; Mortality (Means ± standard error, %) ([2]; 0.25 mg/tube, 48 hr): 10.0 ± 2.6 bc %; Mortality (Means ± standard error, %) ([2]; 0.3 mg/tube, 24 hr): 25.0 ± 2.5 bc %; Mortality (Means ± standard error, %) ([2]; 0.3 mg/tube, 48 hr): 32.0 ± 2.8 b %; Mortality (Means ± standard error, %) ([2]; 0.4 mg/tube, 24 hr): 33.0 ± 2.5 b %; Mortality (Means ± standard error, %) ([2]; 0.4 mg/tube, 48 hr): 42.0 ± 4.2 b %; Mortality (Means ± standard error, %) ([2]; 0.5 mg/tube, 24 hr): 92.0 ± 2.6 a %; Mortality (Means ± standard error, %) ([2]; 0.5 mg/tube, 48 hr): 94.0 ± 2.6 a %; Mortality (Means ± standard error, %) [2, 8]: 96%; Mortality (Means ± standard error, %) ([2]; 1 mg/tube, 24 hr): 100 a %; Mortality (Means ± standard error, %) ([2]; 1 mg/tube, 48 hr): 100 a %; acaricidal activity / mortality against two species of house dust mites ([7]; 1 mg/tube, 48 hours after treatment): 100%; acaricidal activity ([7]; at 0.4 mg and less): no significant acaricidal activity
